Source: patent US10209240B2, “Predicting human developmental toxicity of pharmaceuticals using human stem-like cells and metabolomic ratios” (STEMINA BIOMARKER DISCOVERY, INC., priority 2012, dated 2019)
Where two headings read alike, the source gives them in different places. Marks after values point to notes of the source that are not given here.

Assays:
WA09 hES cells [1] = assay: Phase 2 targeted biomarker assay, ornithine/cystine ratio, 9-point dose response
Description: Undifferentiated hES Cell Line Maintenance (Phases 1 and 2). WA09 hES cells were obtained from the WiCell Research Institute (Madison, Wis.) and were maintained in feeder free conditions using mTeSR1 media (StemCell Technologies, Inc., Vancouver, BC, Canada) on hESC-qualified Matrigel (BD Biosciences, San Jose, Calif.) coated 6-well plates. To maintain the undifferentiated stem cell population, differentiated colonies were removed daily through aspiration and media was replaced. Additionally, the hES cells were only used in experiments up to passage 40 and were karyotyped approximately every 10 passages to minimize and monitor the potential for genetic instability. hES cells were passaged at 90-95% confluency (approximately every 7 days) using Versene (Life Technologies, Grand Island, N.Y.). Cell cultures were maintained at 37° C. under 5% CO2.
96-well hES Cell Plating (Phases 1 and 2). All experimental treatments were carried out in 96-well plates. To minimize plating variability and increase reproducibility, hES cells were plated as a single cell suspension and maintained in an undifferentiated state during compound exposure. Prior to plating in the 96-well plates, hES cells were removed from a 6-well plate using TrypLE (Life Technologies). The cells were washed with DMEM/F12 (Life Technologies) and resuspended in mTeSR1 containing 10 μM Y27632 Rho-associated kinase (ROCK) inhibitor (Merck KGaA/Calbiochem, Darmstadt, Germany). The ROCK inhibitor is added to the plating media to increase plating efficiency by decreasing dissociation-induced apoptosis. The inner 60 wells of hESC-qualified Matrigel coated 96-well plates were seeded at a density of 100,000 cells per well. The outer wells of the plate contained an equal volume media to minimize differences in humidity across the plate. Compound exposure began 24 hours after plating.
(§1) Phase 2 hES Cell Compound Exposure. […] The standard compound exposure levels used for most compounds were nine, 3-fold dilutions ranging from 0.04 μM-300 μM (FIG. 1B). […] The stock solution was diluted 1:1000 in mTeSR1 media and subsequent dilutions were performed in mTeSR1 containing 0.1% DMSO such that the final concentration of DMSO was 0.1% in all treatments. hES cells were treated for 72 hours and spent media from the last 24-hour treatment period was collected and added to acetonitrile containing ^13C6 labeled arginine (Cambridge Isotope Laboratories, Andover, Md.) as described under Phase 1. Spent media samples were stored at −80° C. until prepared for LC-HRMS analysis. Cell viability was assessed using the CellTiter-Fluor Cell Viability Assay. A quality control step was included with criteria that the CV of the measured viability RFU of the DMSO control cells could not exceed 10% for a plate to undergo LC-HRMS analysis. A dose response curve was fit to the reference treatment (0.1% DMSO treated control cells) normalized data (Viability RFUTrt X/Viability RFUDMSO) using a four-parameter log-logistic model with the R package “drc” (Ritz and Streibig, 2005, J Statistical Software; 12:1-22).
Sample Preparation (Phases 1 and 2). High molecular weight constituents (>10 KDa) of the spent media samples were removed using a Millipore Multiscreen Ultracel-10 filter plate (EMD Millipore, Billerica, Mass.). Prior to sample filtration, the filter plate was washed with 0.1% NaOH to remove a known contaminant polymer. The plate was then rinsed twice with HPLC-grade water to remove residual polymers and NaOH. Spent media samples were added to the washed filter plate. In Phase 1, samples were spiked with ^13C6 labeled arginine. Samples were centrifuged at 2,000×g at 4° C. for 200 minutes. The filtrate was collected and concentrated overnight in a Savant High Capacity Speedvac Plus Concentrator.

rat whole embryo = settings: cited from earlier work
Humans = settings: cited from earlier work; for Humans (known human developmental toxicity): training and test set; for Known Effect: validation and test set treatments of Example 2
Rodent = settings: cited from earlier work; for Rodent in vivo test results: Embryotoxic: embryotoxic effect in the absence of teratogenic effects and maternal toxicity
zebrafish = settings: training and test set; weak/moderate and strong teratogens both labeled teratogen; cited from earlier work
[2] = cited from earlier work
WA09 hES cells [3] = test system: WA09 hES cells
Method: Phase I hES Cell Compound Exposure. hES cells were treated with a test compound at a single concentration equivalent to the compound's published therapeutic Cmax. […] This was done to ensure that enough cells were present at the time of sample collection to provide a signal for LC-HRMS analysis. For test compound exposure, all compound stock solutions, with the exception of valproic acid, were made with DMSO (Sigma-Aldrich). […] Each 96-well plate included media controls with and without test compound, 0.1% DMSO solvent control cells and cells exposed to a single concentration of eight different test compounds (FIG. 1A). Media controls were included on each plate to assess the impact of test compound on the sample matrix. hES cells were exposed to the test compound for 72 hours, with media and test compound replacement every 24 hours. Cells were monitored throughout the treatment period to ensure that no differentiation was occurring. After 72 hours of treatment, the spent media from the final 24-hour treatment period was collected and added to acetonitrile (Sigma-Aldrich, final acetonitrile concentration 40%), to halt metabolic processes and precipitate proteins from solution. Individual wells from each 96-well plate were collected and analyzed as separate samples. These samples were then stored at −80° C. until prepared for LC-HRMS analysis. Cell viability was assessed using the CellTiter-Fluor Cell Viability Assay as per the manufacturer's instructions (Promega, Madison, Wis.). Quality control parameters were set such that if the coefficient of variation (CV) for the viability relative fluorescent units (RFU) of the 6 cellular samples in a treatment exceeded 10% and no outliers were identified using the Grubb's test (see the worldwide web at graphpad.com/quickcalcs/Grubbs1.cfm), analysis was halted for that compound and the cell culture experiment was repeated. If outliers were present, the outlier sample was removed from analysis. If the CV for the DMSO control cell samples on a plate were outside of the quality control parameters, the entire plate was repeated. hES cell exposure to each of the 23 compounds was replicated a total of nine times.
as §1
Phase 2 Prediction of Developmental Toxicity Potential. […] FIG. 2 illustrates how the assay is applied in this situation. A test compound is considered to be teratogenic at the exposure level where the o/c ratio exceeds the teratogenicity threshold (red box, FIG. 2).

[4] = summarized from TERIS and Briggs et al. 2011, cited from earlier work; for Preclinical in vivo developmental effects: application set compounds
Rabbit = settings: cited from earlier work
[5] = test system: mouse embryonic stem cell; settings: cited from earlier work
hES cells [6] = assay: ADMA/cystine ratio simplified predictive model in hES cell spent media; assay type: cell-based, human; settings: single dose per treatment; ratios less than 0.9 indicate teratogenicity
Description: (§2) This simplified model is based on a ratio of the reference treatment (DMSO) normalized values of ADMA and cystine.
The X-axis is the reference normalized ratio of ADMA/Cystine. The y-axis is the training set of pharmaceuticals. Grey color with triangle glyphs represents teratogens and black color with circle glyphs represents non-teratogens. Each glyph point represents the media value of an independent experimental block (6 reps per block). The crosshair glyphs mark the sample medians. In FIG. 9, grey vertical line is threshold of teratogenicity, grey horizontal lines are the median absolute deviations, and black vertical line designates 1.0. The arrows at the bottom indicate the values used for differentiation of teratogens and nonteratogens, utilizing a cut off of 0.9 (grey line).

hES cells [7] = assay: devTOX computational model predictions (Version 2.0, Version 2.1) from hES cell metabolomics; assay type: cell-based, human; settings: single dose per treatment (Dose column)
Description: The selection process weighted the predictive capacity of a feature, overall intensity, and peak shape to identify very well behaved features/metabolites that could be measured by targeted LC-MS or even by other detection systems.
as §2

[8] = training and test set, weak/moderate and strong teratogens both labeled teratogen
[9] = test set, therapeutic peak plasma in vivo concentration, human
[10] = application set, made using the therapeutic Cmax when available
[11] = test set, interpolated concentration where cell viability dose response curve crosses teratogenicity threshold 0.88, 72 hours
[12] = test set, teratogenicity potential scored against therapeutic Cmax
[13] = application set, peak plasma concentration in humans
[14] = training set, therapeutic peak plasma in vivo concentration, human

| Compound | O/C Ratio Prediction (WA09 hES cells [1]) | Targeted Biomarker Assay prediction (WA09 hES cells [1]) | Teratogenicity Potential (μM) O/C Ratio (WA09 hES cells [1]; human, 72 h) [µM] | WEC prediction (rat whole embryo; [8]) | Humans (known human developmental toxicity) (Humans) | Rodent prediction (Rodent; training and test set) | ZET prediction (zebrafish) | Cmax [2, 9] [µM] | Viability Prediction (WA09 hES cells [3]) | Teratogenicity Potential (μM) Cell Viability (WA09 hES cells [3]; human, 72 h) [µM] | Preclinical in vivo and known human developmental effects ([4]; test set compounds) | WEC prediction (rat whole embryo; application set) | Rabbit prediction (Rabbit; application set) | Rodent prediction (Rodent; application set) | Preclinical in vivo developmental effects [4] | Rabbit prediction (Rabbit; training and test set) | mEST prediction [5, 8] | other results |
| --- | --- | --- | --- | --- | --- | --- | --- | --- | --- | --- | --- | --- | --- | --- | --- | --- | --- | --- |
| CC(=O)Nc1ccc(O)cc1 [Acetaminophen] | NON | NON | >300 | TER^k | NON | NON | NON^e | 116 | NON | >300 | None | – | – | – | – | – | – | – |
| NC(=O)c1ccc(N)nc1 [6-Aminonicotinamide] | – | – | – | – | – | – | – | – | – | – | – | TER^d | TER | TER | Craniofacial | – | – | Teratogenicity Potential (μM) O/C Ratio (WA09 hES cells [1]; application set, interpolated concentration where o/c ratio dose response curve crosses teratogenicity threshold 0.88, 72 hours): <0.04 µM; Targeted Biomarker Assay prediction (WA09 hES cells [1]; [10]): TER; mEST prediction ([5]; application set): TER^c; Rodent in vivo test results: Teratogenic (Rodent; application set, structural malformations in the absence of maternal toxicity): +^d; Teratogenicity Potential (μM) Cell Viability (WA09 hES cells [3]; application set, interpolated concentration where cell viability dose response curve crosses teratogenicity threshold 0.88, 72 hours): 24.5 µM |
| CCOC(=O)N1CCC(=C2c3ccc(Cl)cc3CCc3cccnc32)CC1 [Loratadine] | – | – | – | NON^f,j | – | NON | TER^d | – | – | – | None | – | – | – | – | NON | NON^i | Targeted Biomarker Assay prediction (WA09 hES cells [1]; training and test set, o/c ratio scored against therapeutic Cmax): NON; Teratogenicity Potential (μM) Cell Viability (WA09 hES cells [3]; [11]): 76.3 µM; Viability Prediction (WA09 hES cells [3]; [12]): NON |
| CNCCC(Oc1ccc(C(F)(F)F)cc1)c1ccccc1 (centres unmarked) [Fluoxetine] | – | NON | 25.1 | – | – | – | – | – | – | 23 | – | NON^f,g | NON | TER | Embryo toxicity^c | – | – | mEST prediction ([5]; application set): TER^e; Rodent in vivo test results: Embryotoxic (Rodent; application set): +; Cmax [2, 13]: 0.04 µM |
| CN(CCOc1ccc(CC2SC(=O)NC2=O)cc1)c1ccccn1 (centres unmarked) [Rosiglitazone] | – | – | 18.9 | – | – | – | – | – | – | 21.8 | – | NON^h | TER | TER | Embryo toxicity^c | – | – | Targeted Biomarker Assay prediction (WA09 hES cells [1]; [10]): NON; Rodent in vivo test results: Embryotoxic (Rodent; application set): +; Cmax [2, 13]: 1.7 µM |
| Cytosine Arabinoside | – | – | – | TER^j | – | TER | TER^n | – | – | – | – | – | – | – | – | – | TER^i | Teratogenicity Potential (μM) O/C Ratio (WA09 hES cells [1]; training set, interpolated concentration where o/c ratio dose response curve crosses teratogenicity threshold 0.88, 72 hours): 0.04 µM; Known Effect (Humans): Ter; Model Predictions ADMA/Cystine (hES cells [6]): Ter; Cmax [2, 14]: 0.6 µM; Model Predictions Version 2.0 (hES cells [7]): Ter; Model Predictions Version 2.1 (hES cells [7]): Ter; Teratogenicity Potential (μM) Cell Viability (WA09 hES cells [3]): 0.1 µM; Preclinical in vivo and known human developmental effects ([4]; training set compounds): Limb |
| CS(=O)(=O)OCCCCOS(C)(=O)=O [Busulfan] | TER | TER | 0.6 | TER^j | TER | TER | – | – | TER | 3 | – | – | – | – | – | TER | TER^i | Known Effect (Humans): Ter; Model Predictions ADMA/Cystine (hES cells [6]): Ter; Cmax [2, 14]: 49.6 µM; Model Predictions Version 2.0 (hES cells [7]): Ter; Model Predictions Version 2.1 (hES cells [7]): Ter; Cytotoxicity at the Cmax exposure level (WA09 hES cells [3]; human, 72 h): greater than 30%; Preclinical in vivo and known human developmental effects ([4]; training set compounds): Craniofacial, limb, embryo |
| CC(C)(S)[C@@H](N)C(=O)O [D-Penicillamine] | TER | TER | <0.04 | NON^f | TER | TER | NON^d | 13.4 | NON | >300 | Skeletal | – | – | – | – | – | NON^m | Classification by o/c ratio in the targeted biomarker assay (WA09 hES cells [1]): correctly classify |
| S=P(N1CC1)(N1CC1)N1CC1 [ThioTEPA] | TER | TER | 0.04 | – | TER | TER | TER^v | 7 | – | – | Skeletal, embryo toxicity^c | – | – | – | – | TER | – | Teratogenicity Potential (μM) Cell Viability (WA09 hES cells [3]; [11]): 0.5 µM; Viability Prediction (WA09 hES cells [3]; [12]): TER |
